Results from ChEMBL document CHEMBL6103645, “Modular Synthesis of Bioactive Selenoheterocycles for Efficient Cancer Therapy via Electrochemical Selenylation/Cyclization” (J Med Chem, 2025).
Active and inactive are the calls of the source. The calls are words filed in the database; no cut-off is given here.

Experiments:
NCI-H460 [1] = assay: Anti-tumor activity against human NCI-H460 cells assessed as cell viability incubated for 48 hrs by CCK-8 assay; type: functional, cell-based; details: NCI-H460, 48 h
[2] = Antiproliferative activity against rat PA-III cells incubated for 24 hrs by MTT assay; type: functional, cell-based
PC-3M = assay: Antiproliferative activity against human PC-3M cells incubated for 24 hrs by MTT assay; type: functional, cell-based
NCI-H460 [3] = assay: Induction of apoptosis in human NCI-H460 cells assessed as apoptosis rate at 500 nM incubated for 24 hrs by annexin V-FITC/PI staining based flow cytometry analysis relative to control; type: functional
NCI-H460 [4] = assay: Inhibition of epithelial mesenchymal transition in human NCI-H460 cells assessed as decrease in N-cadherin protein expression by Western blotting analysis; type: functional, cell-based
NCI-H460 [5] = assay: Antitumor activity against human NCI-H460 cells xenografted in athymic nude mouse assessed as tumor growth inhibition at 10 mg/kg, iv administered every 2 days and measured after 2 weeks; type: functional; details: NCI-H460, 336 h, read-out: TGI
[6] = Toxicity in male athymic nude mouse assessed as alveolar wall hyperplasia at 10 mg/kg, iv administered every 2 days and measured after 2 weeks by H and E staining based analysis; type: organism-based; details: in vivo, 336 h
NCI-H460 [7] = assay: Antitumor activity against human NCI-H460 cells xenografted in athymic nude mouse assessed as change in tumor volume at 10 mg/kg, iv administered every 2 days and measured after 2 weeks; type: functional, organism-based
NCI-H460 [8] = assay: Inhibition of epithelial mesenchymal transition in human NCI-H460 cells assessed as increase in E-cadherin protein expression by Western blotting analysis; type: functional, cell-based
NCI-H460 [9] = assay: Antitumor activity against human NCI-H460 cells xenografted in athymic nude mouse assessed as change in tumor weight at 10 mg/kg, iv administered every 2 days and measured after 2 weeks; type: functional, organism-based
NCI-H460 [10] = assay: Upregulation of gamma-H2AX expression in human NCI-H460 cells by Western blot analysis; type: functional, cell-based
NCI-H460 [11] = assay: Induction of apoptosis in human NCI-H460 cells assessed as increase in caspase-3 level at 500 nM incubated for 24 hrs by Western blot analysis; type: functional, cell-based
[12] = Hemolytic activity in BALB/c mouse Red blood cells assessed as effect on morphological structure at 10 to 100 uM incubated for 2 hrs; type: toxicity, cell-based; details: erythrocyte, dose 10-100 µM
NCI-H460 [13] = assay: Induction of apoptosis in human NCI-H460 cells assessed as downregulation of Bcl2 expression at 500 nM incubated for 24 hrs by Western blot analysis; type: functional, cell-based
NCI-H460 [14] = assay: Induction of apoptosis in human NCI-H460 cells assessed as increase in BAX level at 500 nM incubated for 24 hrs by Western blot analysis; type: functional, cell-based
NCI-H460 [15] = assay: Anti-migratory activity against human NCI-H460 cells assessed as inhibition of cell migration at 500 nM measured for 48 hrs by wound healing assay; type: functional, cell-based
NCI-H460 [16] = assay: Induction of DNA damage in human NCI-H460 cells assessed as increase in gammaH2AX positive cells by immunofluorescence analysis; type: functional, cell-based
[17] = Hemolytic activity in BALB/c mouse Red blood cells assessed as hemolysis at 10 to 100 uM incubated for 2 hrs; type: toxicity, cell-based, Erythrocyte; details: dose 10-100 µM, read-out: Activity
HT-29 = assay: Anti-tumor activity against human HT-29 cells assessed as cell viability incubated for 48 hrs by CCK-8 assay; type: functional, cell-based
NCI-H460 [18] = assay: Inhibition of cell invasion in human NCI-H460 cells assessed as decrease in number of invading cells at 500 nM incubated for 48 hrs by transwell assay; type: functional, cell-based
MCF7 = assay: Anti-tumor activity against human MCF7 cells assessed as cell viability incubated for 48 hrs by CCK-8 assay; type: functional, cell-based
NCI-H460 [19] = assay: Induction of DNA damage in human NCI-H460 cells assessed as increase in gammaH2AX positive cells by DAPI staining based confocal laser scanning microscopic analysis; type: functional, cell-based
NCI-H460 [20] = assay: Inhibition of colony formation in human NCI-H460 cells assessed as reduction in colony formation rate upto 12.5 uM incubated for 14 days by crystal violet staining based analysis; type: functional, cell-based; details: time 14.0 day
HeLa = assay: Anti-tumor activity against human HeLa cells assessed as cell viability incubated for 48 hrs by CCK-8 assay; type: functional, cell-based

SMILES | IC50 (NCI-H460 [1]) | also measured
COc1ccc([Se]c2c(-c3ccccc3)ncc3cc(C)ccc23)cc1 | 16.6 µM | 
Clc1ccc2c([Se]c3ccccc3)c(-c3ccccc3)ncc2c1 | 99.2 µM | 
CCCCc1ncc2ccccc2c1[Se]c1ccc(OC)cc1 | > 100 µM | 
COc1ccc([Se]c2c(-c3ccccc3)ncc3cc(OC)ccc23)cc1 | 8.58 µM | 
COc1ccc([Se]c2c(-c3ccccc3)ncc3cc(Cl)ccc23)cc1 | 93.3 µM | 
CC(C)(C)c1ncc2ccccc2c1[Se]c1ccccc1 | > 100 µM | 
Brc1ccc([Se]c2c(-c3ccccc3)ncc3ccccc23)cc1 | > 100 µM | 
c1ccc([Se]c2c(C3CC3)ncc3ccccc23)cc1 | > 100 µM | 
COc1ccc([Se]c2c(-c3ccc4ccccc4c3)ncc3ccccc23)cc1 | > 100 µM | 
C[Se]c1c(-c2ccccc2)ncc2ccccc12 | > 100 µM | 
COc1ccc([Se]c2c(-c3ccccc3)ncc3cc4c(cc23)OCO4)cc1 | > 100 µM | 
COc1ccc([Se]c2c(-c3ccsc3)ncc3ccccc23)cc1 | 44.5 µM | 
COc1cccc([Se]c2c(-c3ccccc3)ncc3ccccc23)c1 | 56.5 µM | 
Cc1cccc([Se]c2c(-c3ccccc3)ncc3ccccc23)c1 | 38 µM | 
Fc1ccc(-c2ncc3ccccc3c2[Se]c2ccccc2)cc1 | > 100 µM | 
c1ccc([Se]c2c(-c3ccc(-c4ncc5ccccc5c4[Se]c4ccccc4)cc3)ncc3ccccc23)cc1 | > 100 µM | 
FC(F)(F)c1ccccc1[Se]c1c(-c2ccccc2)ncc2ccccc12 | 68 µM | 
COc1ccccc1[Se]c1c(-c2ccccc2)ncc2ccccc12 | 64.2 µM | 
Cc1ccccc1[Se]c1c(-c2ccccc2)ncc2ccccc12 | 61.6 µM | 
N#Cc1ccc([Se]c2c(-c3ccccc3)ncc3ccccc23)cc1 | > 100 µM | 
c1ccc([Se]c2c(-c3ccc(-c4cc(-c5ccc(-c6ncc7ccccc7c6[Se]c6ccccc6)cc5)cc(-c5ccc(-c6ncc7ccccc7c6[Se]c6ccccc6)cc5)c4)cc3)ncc3ccccc23)cc1 | > 100 µM | 
Clc1ccc(-c2ncc3ccccc3c2[Se]c2ccccc2)cc1 | > 100 µM | 
COc1ccc(-c2ncc3ccccc3c2[Se]c2ccccc2)cc1 | > 100 µM | 

SMILES | IC50 (NCI-H460 [1]) | also measured
Clc1ccc([Se]c2c(-c3ccccc3)ncc3ccccc23)cc1 | 82 µM | 
Cc1ccc(-c2cc(C(F)(F)F)nn2-c2ccc(S(N)(=O)=O)cc2)cc1 [CELECOXIB] |  | IC50 [2]: > 20 µM; IC50 (PC-3M): > 20 µM
CC[C@@]1(O)C(=O)OCc2c1cc1n(c2=O)Cc2cc3ccccc3nc2-1 [CAMPTOTHECIN] | 2.46 µM | Activity (NCI-H460 [3]): 39.1%; inhibition (NCI-H460 [4]): Active; inhibition in vivo at 10 mg/kg (NCI-H460 [5]): 66%; Activity [6]: Toxic; Activity (NCI-H460 [7]): Active; inhibition (NCI-H460 [8]): Active; Activity (NCI-H460 [9]): Active; Activity (NCI-H460 [10]): Active
c1ccc([Se]c2c(-c3ccsc3)ncc3ccccc23)cc1 | > 100 µM | 
c1ccc([Se]c2c(-c3ccc(-c4ccccc4)cc3)ncc3ccccc23)cc1 | > 100 µM | 
N#Cc1cccc([Se]c2c(-c3ccccc3)ncc3ccccc23)c1 | 68 µM | 
c1ccc([Se]c2c(-c3cc4ccccc4c4ccccc34)ncc3ccccc23)cc1 | > 100 µM | 
COc1ccc([Se]c2c(-c3ccccc3)ncc3cc(C(F)(F)F)ccc23)cc1 | 42.6 µM | 
c1ccc([Se]c2c(-c3ccccc3)ncc3ccccc23)cc1 | 61.6 µM | 
Cc1ccc2c([Se]c3ccccc3)c(-c3ccccc3)ncc2c1 | > 100 µM | 
c1ccc([Se]c2c(-c3ccccc3)ncc3cccnc23)cc1 | 42.3 µM | 
COc1ccc([Se]c2c(-c3ccc(Br)cc3)ncc3ccccc23)cc1 | > 100 µM | 
Cc1ccc(-c2ncc3ccccc3c2[Se]c2ccccc2)cc1 | > 100 µM | 
COc1ccc([Se]c2c(-c3ccccc3)ncc3cc(F)ccc23)cc1 | 39 µM | 
Brc1c2ccccc2c(-c2ncc3ccccc3c2[Se]c2ccccc2)c2ccccc12 | > 100 µM | 
CC(C)(C)c1ccc(-c2ncc3ccccc3c2[Se]c2ccccc2)cc1 | 40.8 µM | 
COc1ccc([Se]c2c(-c3ccccc3)ncc3cccc(F)c23)cc1 | 53.2 µM | 
Fc1ccc2c([Se]c3ccccc3)c(-c3ccccc3)ncc2c1 | > 100 µM | 
c1ccc([Se]c2c(-c3ccccc3)ncc3sccc23)cc1 | 65.6 µM | 
N#Cc1ccccc1[Se]c1c(-c2ccccc2)ncc2ccccc12 | > 100 µM | 
Brc1ccc(-c2ncc3ccccc3c2[Se]c2ccccc2)cc1 | > 100 µM | 
COc1ccc([Se]c2c(-c3ccccc3)ncc3cc(Br)ccc23)cc1 | 94.8 µM | 
Fc1ccc([Se]c2c(-c3ccccc3)ncc3ccccc23)cc1 | 20.3 µM | 

SMILES | IC50 (NCI-H460 [1]) | also measured
COc1cc2cnc(-c3ccccc3)c([Se]c3ccccc3)c2cc1OC | 42.3 µM | 
Brc1ccc2c([Se]c3ccccc3)c(-c3ccccc3)ncc2c1 | 86.2 µM | 
FC(F)(F)c1ccc([Se]c2c(-c3ccccc3)ncc3ccccc23)cc1 | 53.6 µM | 
Clc1ccccc1[Se]c1c(-c2ccccc2)ncc2ccccc12 | > 100 µM | 
c1ccc([Se]c2c(-c3c4ccccc4c(-c4ncc5ccccc5c4[Se]c4ccccc4)c4ccccc34)ncc3ccccc23)cc1 | > 100 µM | 
Clc1cccc([Se]c2c(-c3ccccc3)ncc3ccccc23)c1 | 56.7 µM | 
COc1ccc([Se]c2c(-c3ccccc3)ncc3ccccc23)cc1 | 6.39 µM | Activity (NCI-H460 [11]): Active; Activity (NCI-H460 [3]): 20.8%; Activity [12]: Non-toxic; N-cadherin expression decrease (qualitative activity) (NCI-H460 [4]): Active; Activity (NCI-H460 [13]): Active; Activity (NCI-H460 [14]): Active; Activity (NCI-H460 [15]): Active; inhibition (NCI-H460 [8]): Active; Activity (NCI-H460 [16]): Active; hemolysis at 2 h, 100 µM [17]: < 1%; Activity (HT-29): inactive; inhibition (NCI-H460 [18]): Active; Activity (MCF7): inactive; Activity (NCI-H460 [19]): Active; inhibition (NCI-H460 [20]): Active; Activity (NCI-H460 [10]): Active; Activity (HeLa): inactive
CN(C)c1ccc([Se]c2c(-c3ccccc3)ncc3ccccc23)cc1 | > 100 µM | 
COc1ccc([Se]c2c(-c3ccccc3)ncc3sccc23)cc1 | 33.6 µM | 
COc1ccc([Se]c2cc(-c3ncc4ccccc4c3[Se]c3ccc(OC)cc3)cc([Se]c3ccc(OC)cc3)c2N)cc1 | > 100 µM | 
FC(F)(F)c1ccc2c([Se]c3ccccc3)c(-c3ccccc3)ncc2c1 | 51.9 µM | 
Fc1ccccc1[Se]c1c(-c2ccccc2)ncc2ccccc12 | > 100 µM | 
O=P1(N(CCCl)CCCl)NCCCO1 (configuration not stated) [CYCLOPHOSPHAMIDE ANHYDROUS] | 114 µM | 
Fc1cccc([Se]c2c(-c3ccccc3)ncc3ccccc23)c1 | > 100 µM | 
COc1ccc([Se]c2c(-c3ccc(Cl)cc3)ncc3ccccc23)cc1 | 77.3 µM | 
FC(F)(F)c1cccc([Se]c2c(-c3ccccc3)ncc3ccccc23)c1 | 47.2 µM | 
COc1ccc([Se]c2c(-c3ccccc3)ncc3ccc(OC)cc23)cc1 | 5.9 µM | Activity (NCI-H460 [11]): Active; Activity (NCI-H460 [3]): 31.5%; Activity [12]: Non-toxic; N-cadherin expression decrease (qualitative activity) (NCI-H460 [4]): Active; Activity (NCI-H460 [13]): Active; Activity (NCI-H460 [14]): Active; Activity (NCI-H460 [15]): Active; inhibition (NCI-H460 [8]): Active; Activity (NCI-H460 [16]): Active; hemolysis at 2 h, 100 µM [17]: < 1%; Activity (HT-29): inactive; inhibition (NCI-H460 [18]): Active; Activity (MCF7): inactive; Activity (NCI-H460 [19]): Active; inhibition (NCI-H460 [20]): Active; Activity (NCI-H460 [10]): Active; Activity (HeLa): inactive
c1ccc([Se]c2c(-c3ccccc3)ncc3cc4c(cc23)OCO4)cc1 | 34.2 µM | 
Cc1ccc([Se]c2c(-c3ccccc3)ncc3ccccc23)cc1 | 52 µM | 
CCCCc1ncc2ccccc2c1[Se]c1ccccc1 | > 100 µM | 
N#C[Se]Cc1cc(-c2ccccc2)n(-c2ccc(S(N)(=O)=O)cc2)n1 |  | IC50 [2]: 5 µM
c1ccc([Se]c2c(-c3ccc4ccccc4c3)ncc3ccccc23)cc1 | 54.8 µM | 
COc1ccc2c([Se]c3ccccc3)c(-c3ccccc3)ncc2c1 | 76.6 µM | 
